A short description of data set [1]: Phosphate-buffered saline (PBS) solubility of compounds. It counts as physicochemical. Conditions: aqueous buffer, thermodynamic from solid, PBS pH 7.5, 0.5 mg/mL, vortexed 90 min, filtered, LC-MS/MS, read-out: Solubility Range. On the procedure: PBS solutions (pH 7.5) were prepared according to the following compositions and stored at 4° C. Test compounds were dissolved in PBS (pH 7.5) at 0.5 mg/mL and vortexed for 90 min. The PBS solution was sequentially filtered through a 0.45, 1.2, […] syringe filter. Concentration of test compounds were determined using LC-MS/MS with appropriate dilution of the samples.

Data set [2] concerns the target human wild type-CFTR (Homo sapiens, UniProt P13569). The data set can be described thus: Cell-based YFP assay. The settings on record: CHO-K1 cells expressing human wild type-CFTR and YFP-H148Q/I152L; forskolin 20 μM = 100% activity; read-out: Cell-based YFP Assay (EC50) Concentration Range. Set-up: expressed in transfected cells; host or cells: CHO-K1 (Chinese hamster ovary). The method, boiled down:
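I⁻-driven YFP fluorescence quenching at 37 °C: 2 s baseline, addition of 140 mM iodide solution, then 14 s of readings at 0.4 s intervals. Cells were CHO-K1 expressing human wild-type CFTR plus YFP-H148Q/I152L. EC50 derived from averaged triplicates.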

pEC50: −log10 of the molar value. Converted amounts (≈) assume the structure as drawn.

Sequence of human wild type-CFTR (P13569 whole entry): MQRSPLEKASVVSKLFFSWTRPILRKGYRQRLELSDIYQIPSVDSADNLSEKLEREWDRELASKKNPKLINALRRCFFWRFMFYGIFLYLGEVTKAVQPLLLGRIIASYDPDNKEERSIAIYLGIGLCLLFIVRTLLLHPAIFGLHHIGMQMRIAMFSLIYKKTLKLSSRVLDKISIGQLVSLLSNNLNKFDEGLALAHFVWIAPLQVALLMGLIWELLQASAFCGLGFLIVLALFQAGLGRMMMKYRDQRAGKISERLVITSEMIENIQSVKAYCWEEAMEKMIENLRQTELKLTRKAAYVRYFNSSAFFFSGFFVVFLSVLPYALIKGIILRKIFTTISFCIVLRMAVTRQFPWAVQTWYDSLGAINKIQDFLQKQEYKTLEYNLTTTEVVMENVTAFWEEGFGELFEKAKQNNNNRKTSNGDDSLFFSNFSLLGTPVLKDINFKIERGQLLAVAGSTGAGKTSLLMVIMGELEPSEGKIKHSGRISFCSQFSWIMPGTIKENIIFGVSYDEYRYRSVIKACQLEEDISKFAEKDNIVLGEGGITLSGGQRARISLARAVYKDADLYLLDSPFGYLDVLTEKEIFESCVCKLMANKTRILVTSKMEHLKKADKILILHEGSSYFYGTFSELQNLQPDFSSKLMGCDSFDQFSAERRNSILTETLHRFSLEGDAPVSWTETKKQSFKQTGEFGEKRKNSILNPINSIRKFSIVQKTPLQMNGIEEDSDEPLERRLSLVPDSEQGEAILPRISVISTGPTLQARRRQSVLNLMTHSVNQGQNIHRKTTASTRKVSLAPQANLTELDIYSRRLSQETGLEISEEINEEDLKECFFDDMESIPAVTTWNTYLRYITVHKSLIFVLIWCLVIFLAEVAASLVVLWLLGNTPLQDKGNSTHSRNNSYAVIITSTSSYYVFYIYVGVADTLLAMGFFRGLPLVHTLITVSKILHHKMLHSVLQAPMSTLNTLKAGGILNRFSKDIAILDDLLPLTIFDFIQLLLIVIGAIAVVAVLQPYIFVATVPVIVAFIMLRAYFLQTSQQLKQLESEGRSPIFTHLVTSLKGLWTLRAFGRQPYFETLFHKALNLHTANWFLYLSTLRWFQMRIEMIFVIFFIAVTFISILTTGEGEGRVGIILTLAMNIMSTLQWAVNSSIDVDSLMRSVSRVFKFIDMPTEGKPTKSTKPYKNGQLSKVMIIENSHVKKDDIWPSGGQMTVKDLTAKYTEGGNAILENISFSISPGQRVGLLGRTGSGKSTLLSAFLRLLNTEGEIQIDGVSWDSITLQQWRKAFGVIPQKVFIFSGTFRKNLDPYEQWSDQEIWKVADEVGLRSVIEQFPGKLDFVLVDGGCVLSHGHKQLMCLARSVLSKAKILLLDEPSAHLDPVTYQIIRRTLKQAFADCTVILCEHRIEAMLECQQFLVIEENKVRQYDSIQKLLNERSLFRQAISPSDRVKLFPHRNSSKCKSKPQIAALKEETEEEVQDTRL

A word on the solubility: it is the concentration that dissolves in the medium under given conditions. Regarding `COC(=O)[C@@H]1CCCN1C(=O)c1ccc(NC(=O)c2cc3nccc(-c4ccc(OC)c(OC)c4)n3n2)cc1` [Compound 47, methyl (4-(7-(3,4-dimethoxyphenyl)pyrazolo [1,5-a]pyrimidine-2-carboxamido)benzoyl)-L-prolinate], the solubility at 90 min in data set [1] was less than 0.1 µg/mL. Also, in data set [2], the pEC50 was more than 6.70.

As for `COC(=O)[C@H](Cc1ccccc1)NC(=O)c1ccc(NC(=O)c2cc3nccc(-c4ccc(OC)c(OC)c4)n3n2)cc1` [Compound 46, methyl (4-(7-(3,4-dimethoxyphenyl)pyrazolo [1,5-a]pyrimidine-2-carboxamido)benzoyl)-L-phenylalaninate], the solubility at 90 min in data set [1] was less than 0.1 µg/mL. Besides, in data set [2], the pEC50 was more than 6.70.

On to `COc1ccc(-c2ccnc3cc(C(=O)Nc4ccc(C(=O)N5CCOCC5)c(O)c4)nn23)cc1OC` [Compound 169, 7-(3,4-dimethoxyphenyl)-N-(3-hydroxy-4-(morpholine-4-carbonyl)phenyl)pyrazolo[1,5-a]pyrimidine-2-carboxamide], for which, in data set [1], the solubility at 90 min is less than 0.1 µg/mL. Also, in data set [2], the pEC50 is more than 6.70.

As to `COC(=O)[C@H](CO)NC(=O)c1ccc(NC(=O)c2cc3nccc(-c4ccc(OC)c(OC)c4)n3n2)cc1` [Compound 43, methyl (4-(7-(3,4-dimethoxyphenyl)pyrazolo [1,5-a]pyrimidine-2-carboxamido)benzoyl)-L-serinate], in data set [1], the solubility at 90 min is less than 0.1 µg/mL. For the same compound, the pEC50 in data set [2] is more than 6.70.

As for `COC(=O)c1ccc(NC(=O)c2cc3nccc(-c4ccc(OC)c(OC)c4)n3n2)cc1O` [Compound 167, methyl 4-(7-(3,4-dimethoxyphenyl)pyrazolo [1,5-a]pyrimidine-2-carboxamido)-2-hydroxybenzoate], the solubility at 90 min in data set [1] was less than 0.1 µg/mL. The pEC50 in data set [2] was more than 6.70.

As for `COc1ccc(-c2ccnc3cc(C(=O)Nc4cccc(C(=O)O)c4)nn23)cc1OC` [Compound 16, 3-(7-(3,4-dimethoxyphenyl)pyrazolo[1,5-a]pyrimidine-2-carboxamido)benzoic acid], in data set [1], the solubility at 90 min is more than 10 µg/mL. Besides, in data set [2], the pEC50 was not above 5.70.

Regarding `COc1ccc(-c2ccnc3cc(C(=O)NC45CC(C(=O)N6CCN(C(=O)OC(C)(C)C)CC6)(C4)C5)nn23)cc1OC` [Compound 92, tert-butyl 4-(3-(7-(3,4-dimethoxyphenyl)pyrazolo [1,5-a]pyrimidine-2-carboxamido)bicyclo [1.1.1]pentane-1-carbonyl)piperazine-1-carboxylate], the solubility at 90 min in data set [1] was less than 0.1 µg/mL. For the same compound, in data set [2], the pEC50 is more than 6.70.

In the case of `COc1ccc(-c2ccnc3cc(C(=O)Nc4ccc(C(=O)OCCCN5CCOCC5)cc4)nn23)cc1OC` [Compound 121, 3-morpholinopropyl 4-(7-(3,4-dimethoxyphenyl)pyrazolo [1,5-a]pyrimidine-2-carboxamido)benzoate], the solubility at 90 min in data set [1] is less than 0.1 µg/mL. Also, the pEC50 in data set [2] is more than 6.70.

As for `COc1ccc(-c2ccnc3cc(C(=O)N[C@H]4CC[C@H](C(=O)N5CCN(C(=O)OC(C)(C)C)CC5)CC4)nn23)cc1OC` [Compound 76, tert-butyl 4-((1R,4R)-4-(7-(3,4-dimethoxyphenyl)pyrazolo [1,5-a]pyrimidine-2-carboxamido)cyclohexane-1-carbonyl)piperazine-1-carboxylate], the solubility at 90 min in data set [1] lay in the range of 0.1 to 10 µg/mL (≈ 0.169 to 16.9 µM). The pEC50 in data set [2] was 5.70 to 6.70.

For `COc1ccc(-c2ccnc3cc(C(=O)Nc4ccc(C(N)=O)cc4)nn23)cc1OC` [Compound 48, N-(4-carbamoylphenyl)-7-(3,4-dimethoxyphenyl)pyrazolo [1,5-a]pyrimidine-2-carboxamide], the solubility at 90 min in data set [1] is less than 0.1 µg/mL. Besides, the pEC50 in data set [2] is more than 6.70.

For the compound `COc1ccc(-c2ccnc3cc(C(=O)Nc4ccc(C(=O)NCCN5CCOCC5)cc4)nn23)cc1OC` [Compound 139, 7-(3,4-dimethoxyphenyl)-N-(4-((2-morpholinoethyl)carbamoyl)phenyl)pyrazolo[1,5-a]pyrimidine-2-carboxamide], in data set [1], the solubility at 90 min was less than 0.1 µg/mL. The pEC50 in data set [2] was more than 6.70.

Turning to `COc1ccc(-c2ccnc3cc(C(=O)Nc4ccc(C(=O)OCCN5CCOCC5)cc4)nn23)cc1OC` [Compound 164, 2-morpholinoethyl 4-(7-(3,4-dimethoxyphenyl)pyrazolo [1,5-a]pyrimidine-2-carboxamido)benzoate], the solubility at 90 min in data set [1] was less than 0.1 µg/mL. Besides, the pEC50 in data set [2] was more than 6.70.

Take `COc1ccc(-c2ccnc3cc(C(=O)Nc4ccc(C(=O)OCc5ccccc5)cn4)nn23)cc1OC` [Compound 114, benzyl 6-(7-(3,4-dimethoxyphenyl)pyrazolo [1,5-a]pyrimidine-2-carboxamido)nicotinate]: in data set [1], the solubility at 90 min is less than 0.1 µg/mL. The pEC50 in data set [2] was more than 6.70.

Take `COC(=O)C1CN(C(=O)c2ccc(NC(=O)c3cc4nccc(-c5ccc(OC)c(OC)c5)n4n3)cc2)C1` [Compound 65, methyl 1-(4-(7-(3,4-dimethoxyphenyl)pyrazolo[1,5-a]pyrimidine-2-carboxamido)benzoyl) azetidine-3-carboxylate]: the solubility at 90 min in data set [1] is less than 0.1 µg/mL. Further, in data set [2], the pEC50 is more than 6.70.

Regarding `COc1ccc(-c2ccnc3cc(C(=O)Nc4ccc(C(=O)OCCCN5CCN(C)CC5)cc4)nn23)cc1OC` [Compound 165, 3-(4-methylpiperazin-1-yl)propyl 4-(7-(3,4-dimethoxyphenyl)pyrazolo[1,5-a]pyrimidine-2-carboxamido)benzoate], in data set [1], the solubility at 90 min was less than 0.1 µg/mL. In data set [2], the pEC50 is 5.70 to 6.70.

As for `CCOC(=O)COc1ccc(NC(=O)c2cc3nccc(-c4ccc(OC)c(OC)c4)n3n2)cc1` [Compound 34, ethyl 2-(4-(7-(3,4-dimethoxyphenyl)pyrazolo [1,5-a]pyrimidine-2-carboxamido)phenoxy) acetate], the solubility at 90 min in data set [1] is less than 0.1 µg/mL. Moreover, in data set [2], the pEC50 is more than 6.70.

With `COC(=O)c1ccc(NC(=O)c2cc3nccc(-c4cc(OC)c(OC)c(OC)c4)n3n2)cc1` [Compound 32, methyl 4-(7-(3,4,5-trimethoxyphenyl)pyrazolo [1,5-a]pyrimidine-2-carboxamido)benzoate], the solubility at 90 min in data set [1] was less than 0.1 µg/mL. Further, the pEC50 in data set [2] is more than 6.70.

For the compound `COc1ccc(-c2ccnc3cc(C(=O)NC4CCN(C(=O)OC(C)(C)C)CC4)nn23)cc1OC` [Compound 63, tert-butyl 4-(7-(3,4-dimethoxyphenyl)pyrazolo[1,5-a]pyrimidine-2-carboxamido)piperidine-1-carboxylate], the solubility at 90 min in data set [1] is 0.1 to 10 µg/mL (≈ 0.208 to 20.8 µM). The pEC50 in data set [2] was 5.70 to 6.70.

On to `COc1ccc(-c2ccnc3cc(C(=O)N4CC[C@H](NC(=O)OC(C)(C)C)C4)nn23)cc1OC` [Compound 145, tert-butyl (S)-(1-(7-(3,4-dimethoxyphenyl)pyrazolo [1,5-a]pyrimidine-2-carbonyl)pyrrolidine-3-yl)carbamate], for which the solubility at 90 min in data set [1] is 0.1 to 10 µg/mL (≈ 0.214 to 21.4 µM). In addition, the pEC50 in data set [2] is 5.70 to 6.70.

Turning to `COc1ccc(-c2ccnc3cc(C(=O)Nc4ccc(C(=O)N5CCN(C(=O)OC(C)(C)C)CC5)cc4)nn23)cc1OC` [Compound 51, tert-butyl 4-(4-(7-(3,4-dimethoxyphenyl)pyrazolo [1,5-a]pyrimidine-2-carboxamido)benzoyl) piperazine-1-carboxylate], the solubility at 90 min in data set [1] is less than 0.1 µg/mL. Further, the pEC50 in data set [2] was more than 6.70.

Take `COc1ccc(-c2ccnc3cc(C(=O)Nc4ccc(N5CCN(C)CC5)cn4)nn23)cc1OC` [Compound 204, 7-(3,4-dimethoxyphenyl)-N-(5-(4-methylpiperazin-1-yl)pyridin-2-yl)pyrazolo[1,5-a]pyrimidine-2-carboxamide]: the solubility at 90 min in data set [1] was less than 0.1 µg/mL. The pEC50 in data set [2] is more than 6.70.

As for `COC(=O)[C@H](CC(C)C)NC(=O)c1ccc(NC(=O)c2cc3nccc(-c4ccc(OC)c(OC)c4)n3n2)cc1` [Compound 57, methyl (4-(7-(3,4-dimethoxyphenyl)pyrazolo [1,5-a]pyrimidine-2-carboxamido)benzoyl)-L-leucinate], the solubility at 90 min in data set [1] is less than 0.1 µg/mL. In data set [2], the pEC50 was more than 6.70.

In the case of `COc1ccc(-c2ccnc3cc(C(=O)Nc4ccc(C(=O)N[C@@H](CC(C)C)C(=O)O)cc4)nn23)cc1OC` [Compound 85, (4-(7-(3,4-dimethoxyphenyl)pyrazolo[1,5-a]pyrimidine-2-carboxamido)benzoyl)-L-leucine], in data set [1], the solubility at 90 min was more than 10 µg/mL. Further, the pEC50 in data set [2] is 5.70 to 6.70.

On to `COc1ccc(-c2ccnc3cc(C(=O)Nc4ccc(C(=O)N5CCOCC5)cc4F)nn23)cc1OC` [Compound 157, 7-(3,4-dimethoxyphenyl)-N-(2-fluoro-4-(morpholine-4-carbonyl)phenyl)pyrazolo[1,5-a]pyrimidine-2-carboxamide], for which, in data set [1], the solubility at 90 min is less than 0.1 µg/mL. Also, in data set [2], the pEC50 was more than 6.70.

Take `COc1ccc(-c2ccnc3cc(C(=O)N[C@H]4CC[C@@H](C(=O)N5CCN(C(=O)OC(C)(C)C)CC5)CC4)nn23)cc1OC` [Compound 73, tert-butyl 4-((1S,4S)-4-(7-(3,4-dimethoxyphenyl)pyrazolo [1,5-a]pyrimidine-2-carboxamido)cyclohexane-1-carbonyl)piperazine-1-carboxylate]: the solubility at 90 min in data set [1] lay within 0.1 to 10 µg/mL (≈ 0.169 to 16.9 µM). Further, in data set [2], the pEC50 is 5.70 to 6.70.

In the case of `COc1ccc(-c2ccnc3cc(C(=O)Nc4ccc(C(=O)OCCCN5CCOCC5)c(F)c4)nn23)cc1OC` [Compound 163, 3-morpholinopropyl 4-(7-(3,4-dimethoxyphenyl)pyrazolo [1,5-a]pyrimidine-2-carboxamido)-2-fluorobenzoate], in data set [1], the solubility at 90 min was less than 0.1 µg/mL. The pEC50 in data set [2] was 5.70 to 6.70.

These data come from US20240199623A1 (ILDONG PHARMACEUTICAL CO., LTD., priority 2020, published 2024).
